Data taken from patent US7125662B2, “Method of identifying putative antibiotic resistance genes” (priority 2000, dated 2006).
Values after ≈ are worked out from the molar mass of the structure shown.

Test system: not given
Experiment: not given
Details: Table 1, β-lactams; unit assumed; cited from earlier work

Row | Compound | Clin. = the MIC for clinical resistance
1 | CCN1CCN(C(=O)N[C@@H](C(=O)N[C@@H]2C(=O)N3[C@@H]2SC(C)(C)[C@@H]3C(=O)O)c2ccccc2)C(=O)C1=O [Pipericillin] | 128 µg/mL

Same assay, conditions: Table 2, aminoglycosides; cited from earlier work

Row | Compound | Minimum Inhibitory Concentration, Clinical Resistance
2 | NCC[C@H](O)C(=O)N[C@@H]1C[C@H](N)[C@@H](O[C@H]2O[C@H](CN)[C@@H](O)[C@H](O)[C@H]2O)[C@H](O)[C@H]1O[C@H]1O[C@H](CO)[C@@H](O)[C@H](N)[C@H]1O [Amikacin] | 32 µg/mL
3 | Gentamycin | 8 µg/mL
4 | NC[C@H]1O[C@H](O[C@H]2[C@H](O)[C@@H](O[C@H]3O[C@H](CO)[C@@H](O)[C@H](N)[C@H]3O)[C@H](N)C[C@@H]2N)[C@H](N)C[C@@H]1O [Tobramycin] | 8 µg/mL

Test system: host expressing Citrobacter freundii ampC gene CMY2
Experiment: MIC conferred by ampC gene CMY2 cloned into common vector
Type: cell-based
Details: not given
Description: (§1) The plasmid-borne ampC genes shown in Table 1 (below) have been cloned into a common vector to ensure that all genes are expressed at the same level. […] That is completely expected because those genes were isolated from clinical samples and identified on the basis of conferring resistance to clinical drugs. ampC genes from two strains of Citrobacter freundii that were isolated in the 1920's, in the pre-antibiotic era, were also cloned into the same vector.

Row | Compound | Minimum Inhibitory Concentration (MIC)
5 | C[C@H]1[C@H](NC(=O)/C(=N\OC(C)(C)C(=O)O)c2csc(N)n2)C(=O)N1S(=O)(=O)O [Aztreonam] | 16
6 | CCN1CCN(C(=O)N[C@@H](C(=O)N[C@@H]2C(=O)N3[C@@H]2SC(C)(C)[C@@H]3C(=O)O)c2ccccc2)C(=O)C1=O [Pipericillin] | 256

Test system: host expressing Citrobacter freundii ampC gene Cfre8454
Experiment: MIC conferred by ampC gene Cfre8454 cloned into common vector
Type: cell-based
Details: Cfre 8454, gene from organism isolated in the 1920's
Description: as §1

Row | Compound | Minimum Inhibitory Concentration (MIC)
7 | C[C@H]1[C@H](NC(=O)/C(=N\OC(C)(C)C(=O)O)c2csc(N)n2)C(=O)N1S(=O)(=O)O [Aztreonam] | 128
8 | CCN1CCN(C(=O)N[C@@H](C(=O)N[C@@H]2C(=O)N3[C@@H]2SC(C)(C)[C@@H]3C(=O)O)c2ccccc2)C(=O)C1=O [Pipericillin] | 512

Test system: evolved E. coli ampC gene
Experiment: not given
Details: two or three laboratory-induced mutations; cited from earlier work

Row | Compound | resistance conferred after further evolution
9 | C[C@H]1[C@H](NC(=O)/C(=N\OC(C)(C)C(=O)O)c2csc(N)n2)C(=O)N1S(=O)(=O)O [Aztreonam] | confer resistance
10 | CCN1CCN(C(=O)N[C@@H](C(=O)N[C@@H]2C(=O)N3[C@@H]2SC(C)(C)[C@@H]3C(=O)O)c2ccccc2)C(=O)C1=O [Pipericillin] | confer resistance

Test system: Salmonella enteritidis serovar typhimurium strain LT2
Experiment: MIC, native Salmonella strain LT2
Type: cell-based
Details: S. enteritidis serovar typhimurium LT2

Row | Compound | Minimum Inhibitory Concentration
11 | Gentamycin | 2 µg/mL

Same assay, conditions: Salmonella enterica; S. enteritidis serovar typhimurium LT2; read-out: Minimum Inhibitory Concentration

Row | Compound | MIC
12 | NCC[C@H](O)C(=O)N[C@@H]1C[C@H](N)[C@@H](O[C@H]2O[C@H](CN)[C@@H](O)[C@H](O)[C@H]2O)[C@H](O)[C@H]1O[C@H]1O[C@H](CO)[C@@H](O)[C@H](N)[C@H]1O [Amikacin] | 4 µg/mL (≈ 6.83 µM)
13 | NC[C@H]1O[C@H](O[C@H]2[C@H](O)[C@@H](O[C@H]3O[C@H](CO)[C@@H](O)[C@H](N)[C@H]3O)[C@H](N)C[C@@H]2N)[C@H](N)C[C@@H]1O [Tobramycin] | 4 µg/mL (≈ 8.56 µM)
14 | NC[C@H]1O[C@H](O[C@H]2[C@H](O)[C@@H](O[C@H]3O[C@H](CO)[C@@H](O)[C@H](N)[C@H]3O)[C@H](N)C[C@@H]2N)[C@H](O)[C@@H](O)[C@@H]1O [Kanamycin] | 4 µg/mL (≈ 8.26 µM)

Same assay, conditions: native strain LT2

Row | Compound | sensitivity of the strain to the drug
15 | NCC[C@H](O)C(=O)N[C@@H]1C[C@H](N)[C@@H](O[C@H]2O[C@H](CN)[C@@H](O)[C@H](O)[C@H]2O)[C@H](O)[C@H]1O[C@H]1O[C@H](CO)[C@@H](O)[C@H](N)[C@H]1O [Amikacin] | sensitive
16 | Gentamycin | sensitive
17 | NC[C@H]1O[C@H](O[C@H]2[C@H](O)[C@@H](O[C@H]3O[C@H](CO)[C@@H](O)[C@H](N)[C@H]3O)[C@H](N)C[C@@H]2N)[C@H](N)C[C@@H]1O [Tobramycin] | sensitive

Test system: host expressing Citrobacter freundii ampC gene LAT3
Experiment: MIC conferred by ampC gene LAT3 cloned into common vector
Type: cell-based
Details: not given
Description: as §1

Row | Compound | Minimum Inhibitory Concentration (MIC)
18 | C[C@H]1[C@H](NC(=O)/C(=N\OC(C)(C)C(=O)O)c2csc(N)n2)C(=O)N1S(=O)(=O)O [Aztreonam] | 64
19 | CCN1CCN(C(=O)N[C@@H](C(=O)N[C@@H]2C(=O)N3[C@@H]2SC(C)(C)[C@@H]3C(=O)O)c2ccccc2)C(=O)C1=O [Pipericillin] | 512

Test system: host expressing Citrobacter freundii ampC gene CMY3b
Experiment: MIC conferred by ampC gene CMY3b cloned into common vector
Type: cell-based
Details: not given
Description: as §1

Row | Compound | Minimum Inhibitory Concentration (MIC)
20 | C[C@H]1[C@H](NC(=O)/C(=N\OC(C)(C)C(=O)O)c2csc(N)n2)C(=O)N1S(=O)(=O)O [Aztreonam] | 128
21 | CCN1CCN(C(=O)N[C@@H](C(=O)N[C@@H]2C(=O)N3[C@@H]2SC(C)(C)[C@@H]3C(=O)O)c2ccccc2)C(=O)C1=O [Pipericillin] | 128

Test system: host expressing Citrobacter freundii ampC gene LAT1
Experiment: MIC conferred by ampC gene LAT1 cloned into common vector
Type: cell-based
Details: not given
Description: as §1

Row | Compound | Minimum Inhibitory Concentration (MIC)
22 | C[C@H]1[C@H](NC(=O)/C(=N\OC(C)(C)C(=O)O)c2csc(N)n2)C(=O)N1S(=O)(=O)O [Aztreonam] | 256
23 | CCN1CCN(C(=O)N[C@@H](C(=O)N[C@@H]2C(=O)N3[C@@H]2SC(C)(C)[C@@H]3C(=O)O)c2ccccc2)C(=O)C1=O [Pipericillin] | 128

Test system: host expressing Citrobacter freundii ampC gene Cfre6879
Experiment: MIC conferred by ampC gene Cfre6879 cloned into common vector
Type: cell-based
Details: Cfre 6879, gene from organism isolated in the 1920's
Description: as §1

Row | Compound | Minimum Inhibitory Concentration (MIC)
24 | C[C@H]1[C@H](NC(=O)/C(=N\OC(C)(C)C(=O)O)c2csc(N)n2)C(=O)N1S(=O)(=O)O [Aztreonam] | 256
25 | CCN1CCN(C(=O)N[C@@H](C(=O)N[C@@H]2C(=O)N3[C@@H]2SC(C)(C)[C@@H]3C(=O)O)c2ccccc2)C(=O)C1=O [Pipericillin] | 512

Test system: DH5α-E/pAAC(6′)-Iaa
Experiment: MIC, transgenic host expressing AAC(6′)-Iaa
Type: cell-based, E. coli
Details: DH5α-E/pAAC(6′)-Iaa
Procedure: (§2) The putative AAC(6′) aminogylcoside N6′-acetyltransferase gene from Salmonella enteritidis serovar typhimurium strain LT2, designated AAC(6′)-Iaa, was amplified by PCR and cloned into the expression vector pACSE2 (U.S. patent application Ser. No. 09/640,882 to Hall, filed Aug. 18, 2000, which is hereby incorporated by reference in its entirety). The resulting plasmid was designated pAAC(6′)-Iaa (FIG. 2A). The sequence of the AAC(6′)-Iaa coding region was determined by automated DNA sequencing and was confirmed to be identical to the sequence obtained from the incomplete genome sequence database (FIG. 2B).

Row | Compound | Minimum Inhibitory Concentration
26 | Gentamycin | 0.5 µg/mL

Same assay, conditions: Escherichia coli; DH5α-E/pAAC(6′)-Iaa; read-out: Minimum Inhibitory Concentration

Row | Compound | MIC
27 | NCC[C@H](O)C(=O)N[C@@H]1C[C@H](N)[C@@H](O[C@H]2O[C@H](CN)[C@@H](O)[C@H](O)[C@H]2O)[C@H](O)[C@H]1O[C@H]1O[C@H](CO)[C@@H](O)[C@H](N)[C@H]1O [Amikacin] | 8 µg/mL (≈ 13.7 µM)
28 | NC[C@H]1O[C@H](O[C@H]2[C@H](O)[C@@H](O[C@H]3O[C@H](CO)[C@@H](O)[C@H](N)[C@H]3O)[C@H](N)C[C@@H]2N)[C@H](N)C[C@@H]1O [Tobramycin] | 16 µg/mL (≈ 34.2 µM)
29 | NC[C@H]1O[C@H](O[C@H]2[C@H](O)[C@@H](O[C@H]3O[C@H](CO)[C@@H](O)[C@H](N)[C@H]3O)[C@H](N)C[C@@H]2N)[C@H](O)[C@@H](O)[C@@H]1O [Kanamycin] | 32 µg/mL (≈ 66 µM)

Same assay, conditions: transformed into E. coli strain DH5α-E

Row | Compound | resistance conferred by plasmid pAAC(6′)-Iaa
30 | NCC[C@H](O)C(=O)N[C@@H]1C[C@H](N)[C@@H](O[C@H]2O[C@H](CN)[C@@H](O)[C@H](O)[C@H]2O)[C@H](O)[C@H]1O[C@H]1O[C@H](CO)[C@@H](O)[C@H](N)[C@H]1O [Amikacin] | not
31 | Gentamycin | not
32 | NC[C@H]1O[C@H](O[C@H]2[C@H](O)[C@@H](O[C@H]3O[C@H](CO)[C@@H](O)[C@H](N)[C@H]3O)[C@H](N)C[C@@H]2N)[C@H](N)C[C@@H]1O [Tobramycin] | conferred resistance

Test system: host expressing Citrobacter freundii ampC gene LAT4
Experiment: MIC conferred by ampC gene LAT4 cloned into common vector
Type: cell-based
Details: not given
Description: as §1

Row | Compound | Minimum Inhibitory Concentration (MIC)
33 | C[C@H]1[C@H](NC(=O)/C(=N\OC(C)(C)C(=O)O)c2csc(N)n2)C(=O)N1S(=O)(=O)O [Aztreonam] | 128
34 | CCN1CCN(C(=O)N[C@@H](C(=O)N[C@@H]2C(=O)N3[C@@H]2SC(C)(C)[C@@H]3C(=O)O)c2ccccc2)C(=O)C1=O [Pipericillin] | 512

Test system: plasmid-borne ampC genes CMY-2, CMY-3b, LAT-1, LAT-2, LAT-3, and LAT-4
Experiment: Clinical resistance conferred by plasmid-borne ampC genes as a group
Type: cell-based, Citrobacter freundii
Details: all of CMY-2, CMY-3b, LAT-1, LAT-2, LAT-3, LAT-4
Description: (§3) The plasmid-borne ampC genes shown in Table 1 (below) have been cloned into a common vector to ensure that all genes are expressed at the same level.

Row | Compound | clinical resistance conferred
35 | CCN1CCN(C(=O)N[C@@H](C(=O)N[C@@H]2C(=O)N3[C@@H]2SC(C)(C)[C@@H]3C(=O)O)c2ccccc2)C(=O)C1=O [Pipericillin] | confer clinical resistance

Test system: DH5α-E/pACSE2
Experiment: MIC, host with empty expression vector
Type: cell-based, E. coli
Details: not given
Procedure: as §2

Row | Compound | Minimum Inhibitory Concentration
36 | Gentamycin | 0.25 µg/mL

Same assay, conditions: Escherichia coli, read-out: Minimum Inhibitory Concentration

Row | Compound | MIC
37 | NCC[C@H](O)C(=O)N[C@@H]1C[C@H](N)[C@@H](O[C@H]2O[C@H](CN)[C@@H](O)[C@H](O)[C@H]2O)[C@H](O)[C@H]1O[C@H]1O[C@H](CO)[C@@H](O)[C@H](N)[C@H]1O [Amikacin] | 0.25 µg/mL (≈ 0.427 µM)
38 | NC[C@H]1O[C@H](O[C@H]2[C@H](O)[C@@H](O[C@H]3O[C@H](CO)[C@@H](O)[C@H](N)[C@H]3O)[C@H](N)C[C@@H]2N)[C@H](N)C[C@@H]1O [Tobramycin] | 0.25 µg/mL (≈ 0.535 µM)
39 | NC[C@H]1O[C@H](O[C@H]2[C@H](O)[C@@H](O[C@H]3O[C@H](CO)[C@@H](O)[C@H](N)[C@H]3O)[C@H](N)C[C@@H]2N)[C@H](O)[C@@H](O)[C@@H]1O [Kanamycin] | 0.125 µg/mL (≈ 0.258 µM)

Test system: No Plasmid host
Experiment: MIC, host with no plasmid (Table 1)
Type: cell-based
Details: not given
Description: as §3

Row | Compound | Minimum Inhibitory Concentration (MIC)
40 | CCN1CCN(C(=O)N[C@@H](C(=O)N[C@@H]2C(=O)N3[C@@H]2SC(C)(C)[C@@H]3C(=O)O)c2ccccc2)C(=O)C1=O [Pipericillin] | 2

Test system: host expressing Citrobacter freundii ampC gene LAT2
Experiment: MIC conferred by ampC gene LAT2 cloned into common vector
Type: cell-based
Details: not given
Description: as §1

Row | Compound | Minimum Inhibitory Concentration (MIC)
41 | C[C@H]1[C@H](NC(=O)/C(=N\OC(C)(C)C(=O)O)c2csc(N)n2)C(=O)N1S(=O)(=O)O [Aztreonam] | 64
42 | CCN1CCN(C(=O)N[C@@H](C(=O)N[C@@H]2C(=O)N3[C@@H]2SC(C)(C)[C@@H]3C(=O)O)c2ccccc2)C(=O)C1=O [Pipericillin] | 256
